Experimental data from US20030157040A1, “Use of ectoine or ectoine derivatives in cosmetic formulations” (Merck Patent GmbH, priority 1998, published 2003).
Values joined by “and” are separate entries in the source; they are usually repeats but may differ in a detail not shown here. Equal values may be shown once. “Also recorded” adds a separate entry of the source.

System: organotypical skin equivalents (Skinethic)
Assay: UV-induced formation of "sunburn cells" in organotypical skin equivalents
Type: cell-based
Conditions: for Number of counted "sunburn cells" in individual sections of the UV-irradiated skin equivalents / Number of counted "sunburn cells", mean M of six sections: pretreatment 24 h with ectoin 4%; for Number of counted "sunburn cells" in individual sections of the UV-irradiated skin equivalents: individual section
Procedure: An investigation is carried-out to determine whether ectoin has an inhibiting action on the UV-induced formation of “sunburn cells” in organotypical skin equivalents.
The investigations are carried out in accordance with the method described in A. R. Young, ‘The sunburn cell’, Photodermatology 4 (1987) 127-134. The cells used are organotypical skin models. Skinethic® skin equivalents from Skinethic, Nice, France (Lot. No. PK 2 DT 07 99 022A 0603) are used. Ectoin is weighed in directly prior to the start of the test and dissolved in the use concentration of 4% in EBSS (Gibco BRL; Order No. 15015 044). The organotypical skin equivalents (Skinethic) are, depending on the treatment group, incubated for 24 hours with or without ectoin (4%) at 37° C. and 5% CO2. The two treatment groups are then subjected to UV irradiation (0, 30, 60, 100, 200, 300 mJ/cm^2 of UVB) using a sun simulator (SOL 500, Dr. Hönle). Following incubation for a further 24 hours at 37° C. and 5% CO2, all skin equivalents are prepared histologically and investigated for induced “sunburn cells”.

SMILES: CC1=N[C@H](C(=O)O)CCN1 [ectoin, (S)-1,4,5,6-tetrahydro-2-methyl-4-pyrimidine-carboxylic acid]
- Number of counted "sunburn cells" in individual sections of the UV-irradiated skin equivalents (irradiation 0 mJ/cm^2 UVB): 0
- Number of counted "sunburn cells", mean M of six sections (irradiation 0 mJ/cm^2 UVB, mean of six sections): 0.00
- Number of counted "sunburn cells" in individual sections of the UV-irradiated skin equivalents (irradiation 30 mJ/cm^2 UVB): 1 (2×) and 2 (2×) and 3 and 0
- Number of counted "sunburn cells", mean M of six sections (irradiation 30 mJ/cm^2 UVB, mean of six sections): 1.50
- Number of counted "sunburn cells" in individual sections of the UV-irradiated skin equivalents (irradiation 60 mJ/cm^2 UVB): 2 (2×) and 4 and 3 (3×)
- Number of counted "sunburn cells", mean M of six sections (irradiation 60 mJ/cm^2 UVB, mean of six sections (per section)): 2.83±0.75 and 2.83
- Number of counted "sunburn cells" in individual sections of the UV-irradiated skin equivalents (irradiation 100 mJ/cm^2 UVB): 9 (2×) and 10 (2×) and 8 (2×)
- Number of counted "sunburn cells", mean M of six sections (irradiation 100 mJ/cm^2 UVB, mean of six sections (per section)): 9±0.89 and 9.00
- Number of counted "sunburn cells" in individual sections of the UV-irradiated skin equivalents (irradiation 200 mJ/cm^2 UVB): 39 (2×) and 32 (2×) and 35 and 34
- Number of counted "sunburn cells", mean M of six sections (irradiation 200 mJ/cm^2 UVB, mean of six sections (per section)): 35.17±3.19 and 35.17
- Number of counted "sunburn cells" in individual sections of the UV-irradiated skin equivalents (irradiation 300 mJ/cm^2 UVB): >100 (5×) and <100
- Number of counted "sunburn cells", mean M of six sections (irradiation 300 mJ/cm^2 UVB, mean of six sections): >100
- dose-effect relationship between the rate of formation of SBCs and the administered UV dose (pretreatment with ectoin versus no pretreatment, 0-300 mJ/cm^2 UVB): shifted significantly to higher UV dose ranges; also recorded: significantly into higher UV dose ranges
